Test system: yeast genes (expressed mRNA)
Test: DNA chip measurement of expressed mRNA of yeast genes after culture with a toxic chemical substance
Assay type: cell-based, Saccharomyces cerevisiae S288C
Details: for level of expressed mRNA in the presence of chemical substance / level in the absence of chemical substance: cultured two hours with the chemical substance; for The level of expressed mRNA in the presence of chemical substance/The level of expressed mRNA in the absence of chemical substance: cultured two hours with substance
In short: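 Two-hour exposure of growing S. cerevisiae S288C (YPD, 25° C) to a sublethal toxicant preceded RNA isolation. Fluorescent cDNA was hybridized to a whole-genome array; a treated-to-untreated signal ratio of two or more was taken as significant.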

CCCCCCCCCCCCc1ccc(S(=O)(=O)[O-])cc1.[Na+] [(17), Sodium dodecylbenzosulfonate]
level of expressed mRNA in the presence of chemical substance / level in the absence of chemical substance (yeast gene YDR128W): 0.9
level of expressed mRNA in the presence of chemical substance / level in the absence of chemical substance (yeast gene YDR133C): 0.6
level of expressed mRNA in the presence of chemical substance / level in the absence of chemical substance (yeast gene YDR250C): 0.9
level of expressed mRNA in the presence of chemical substance / level in the absence of chemical substance (yeast gene YDR278C): 0.7
level of expressed mRNA in the presence of chemical substance / level in the absence of chemical substance (yeast gene YDR281C): 1.5
The level of expressed mRNA in the presence of chemical substance/The level of expressed mRNA in the absence of chemical substance (yeast gene YDR330W): 1.5
level of expressed mRNA in the presence of chemical substance / level in the absence of chemical substance (yeast gene YDR366C): 1.2
The level of expressed mRNA in the presence of chemical substance/The level of expressed mRNA in the absence of chemical substance (yeast gene YDR411C): 1.5
The level of expressed mRNA in the presence of chemical substance/The level of expressed mRNA in the absence of chemical substance (yeast gene YDR511W): 1.3
The level of expressed mRNA in the presence of chemical substance/The level of expressed mRNA in the absence of chemical substance (yeast gene YDR545W): 0.9
The level of expressed mRNA in the presence of chemical substance/The level of expressed mRNA in the absence of chemical substance (yeast gene YEL001C): 0.7
The level of expressed mRNA in the presence of chemical substance/The level of expressed mRNA in the absence of chemical substance (yeast gene YER004W): 1.4
The level of expressed mRNA in the presence of chemical substance/The level of expressed mRNA in the absence of chemical substance (yeast gene YER035W): 2.2
The level of expressed mRNA in the presence of chemical substance/The level of expressed mRNA in the absence of chemical substance (yeast gene YER079W): 1.0
The level of expressed mRNA in the presence of chemical substance/The level of expressed mRNA in the absence of chemical substance (yeast gene YER106W): 0.8
The level of expressed mRNA in the presence of chemical substance/The level of expressed mRNA in the absence of chemical substance (yeast gene YER158C): 1.6
The level of expressed mRNA in the presence of chemical substance/The level of expressed mRNA in the absence of chemical substance (yeast gene YER163C): 1.2
The level of expressed mRNA in the presence of chemical substance/The level of expressed mRNA in the absence of chemical substance (yeast gene YER175C): 0.9
The level of expressed mRNA in the presence of chemical substance/The level of expressed mRNA in the absence of chemical substance (yeast gene YFL006W): 1.0
The level of expressed mRNA in the presence of chemical substance/The level of expressed mRNA in the absence of chemical substance (yeast gene YFL010C): 1.9
The level of expressed mRNA in the presence of chemical substance/The level of expressed mRNA in the absence of chemical substance (yeast gene YFL024C): 0.9
The level of expressed mRNA in the presence of chemical substance/The level of expressed mRNA in the absence of chemical substance (yeast gene YFL032W): 1.7
level of expressed mRNA in the presence of chemical substance / level in the absence of chemical substance (yeast gene YFR026C): 1.1
The level of expressed mRNA in the presence of chemical substance/The level of expressed mRNA in the absence of chemical substance (yeast gene YGL037C): 1.3
The level of expressed mRNA in the presence of chemical substance/The level of expressed mRNA in the absence of chemical substance (yeast gene YGL047W): 1.1
The level of expressed mRNA in the presence of chemical substance/The level of expressed mRNA in the absence of chemical substance (yeast gene YGL053W): 2.2
level of expressed mRNA in the presence of chemical substance / level in the absence of chemical substance (yeast gene YGL088W): 0.5
The level of expressed mRNA in the presence of chemical substance/The level of expressed mRNA in the absence of chemical substance (yeast gene YGL121C): 2.7
The level of expressed mRNA in the presence of chemical substance/The level of expressed mRNA in the absence of chemical substance (yeast gene YGL199C): 1.2
level of expressed mRNA in the presence of chemical substance / level in the absence of chemical substance (yeast gene YGR038W): 1.1
The level of expressed mRNA in the presence of chemical substance/The level of expressed mRNA in the absence of chemical substance (yeast gene YGR101W): 1.0
The level of expressed mRNA in the presence of chemical substance/The level of expressed mRNA in the absence of chemical substance (yeast gene YGR110W): 0.9
The level of expressed mRNA in the presence of chemical substance/The level of expressed mRNA in the absence of chemical substance (yeast gene YGR130C): 1.3
level of expressed mRNA in the presence of chemical substance / level in the absence of chemical substance (yeast gene YGR139W): 1.0
The level of expressed mRNA in the presence of chemical substance/The level of expressed mRNA in the absence of chemical substance (yeast gene YGR154C): 1.0
The level of expressed mRNA in the presence of chemical substance/The level of expressed mRNA in the absence of chemical substance (yeast gene YGR221C): 1.3
level of expressed mRNA in the presence of chemical substance / level in the absence of chemical substance (yeast gene YGR243W): 2.1
level of expressed mRNA in the presence of chemical substance / level in the absence of chemical substance (yeast gene YGR293C): 0.8
level of expressed mRNA in the presence of chemical substance / level in the absence of chemical substance (yeast gene YHL006C): 1.1
level of expressed mRNA in the presence of chemical substance / level in the absence of chemical substance (yeast gene YHR095W): 0.8
level of expressed mRNA in the presence of chemical substance / level in the absence of chemical substance (yeast gene YHR105W): 1.0
The level of expressed mRNA in the presence of chemical substance/The level of expressed mRNA in the absence of chemical substance (yeast gene YHR138C): 5.0
level of expressed mRNA in the presence of chemical substance / level in the absence of chemical substance (yeast gene YHR181W): 0.9
The level of expressed mRNA in the presence of chemical substance/The level of expressed mRNA in the absence of chemical substance (yeast gene YHR199C): 1.1
The level of expressed mRNA in the presence of chemical substance/The level of expressed mRNA in the absence of chemical substance (yeast gene YIL023C): 1.2
The level of expressed mRNA in the presence of chemical substance/The level of expressed mRNA in the absence of chemical substance (yeast gene YIL041W): 0.8
The level of expressed mRNA in the presence of chemical substance/The level of expressed mRNA in the absence of chemical substance (yeast gene YIL087C): 1.7
level of expressed mRNA in the presence of chemical substance / level in the absence of chemical substance (yeast gene YIL127C): 0.7
level of expressed mRNA in the presence of chemical substance / level in the absence of chemical substance (yeast gene YJL017W): 1.0
level of expressed mRNA in the presence of chemical substance / level in the absence of chemical substance (yeast gene YJL037W): 1.3
The level of expressed mRNA in the presence of chemical substance/The level of expressed mRNA in the absence of chemical substance (yeast gene YJL057C): 1.4
The level of expressed mRNA in the presence of chemical substance/The level of expressed mRNA in the absence of chemical substance (yeast gene YJL066C): 1.4
The level of expressed mRNA in the presence of chemical substance/The level of expressed mRNA in the absence of chemical substance (yeast gene YJL082W): 0.6

Reference: US20100041089A1, “IMPROVED METHOD FOR DETECTING CHEMICAL […]” (priority 2006, published 2010)
